Laboratory results from patent US20240182423A1, “4-AMINOQUINOLINES FOR TREATMENT OF MULTIDRUG RESISTANT MALARIA” (United States Government as represented by the Department …, priority 2022, published 2024).

Assays:
[1] = system: drug sensitive D6 clone of P. falciparum; assay: SYBR Green I fluorescence-based antiplasmodial assay, D6; type: cell-based, Plasmodium falciparum; conditions: P. falciparum D6, 72 hours
Protocol: (§1) Laboratory strains of P. falciparum were cultured in human erythrocytes by standard methods (Trager, W.; Jensen, J. B. Human malaria parasites in continuous culture. Science 1976, 193 (4254), 673-675. DOI: 10.1126/science.781840 from NLM Medline). The parasites were grown in culture medium with fresh human erythrocytes maintained at 2% hematocrit at 37° C. in low-oxygen conditions (5% 02, 5% CO2, 90% N2). The culture medium used was RPMI-1640 with 25 mg/L gentamicin sulfate, 45 mg/L Albumax II, 10 mM glucose, and 25 mM HEPES buffer (Smilkstein et al., Simple and inexpensive fluorescence-based technique for high-throughput antimalarial drug screening. Antimicrob Agents Chemother 2004, 48 (5), 1803-1806. DOI: 10.1128/aac.48.5.1803-1806.2004). Cultures were maintained at less than 10% parasitemia by transfer of infected cells to fresh erythrocytes and culture medium every 3 or 4 days. […]
(§2) In vitro antimalarial activity was measured using the SYBR Green I fluorescence-based assay. […] Experiments were set up in quadruplicate in 96-well plates with a 100 μL total volume per well with 2% hematocrit, 0.2% parasitemia, and drug dilutions between 0.25 and 250 nM in complete culture medium described above. The plates were incubated at 37° C. in low-oxygen conditions described previously for 72 hours, at which point 100 μL of fluorescent dye-detergent mixture (0.2 μL SYBR Green I: 1 mL lysing buffer) was added and the plates incubated in the dark at room temperature for one hour. After incubation with the fluorescent dye, a 96-well plate reader with excitation wavelength set at 497 nm and emission at 520 nm, was used to measure fluorescence of each well.
(§3) Each of the ADC derivatives was tested for antiplasmodial activity against the drug sensitive D6 clone of P. falciparum as well as one or more of the following multidrug resistant strains: Dd2 or 7G8. The method used for antiplasmodial testing is known as the SyBr Green assay and it was described by us in 2004 (Smilkstein et al., Antimicrob Agents Chemother 2004, 48 (5), 1803-1806).

[2] = system: multi-drug resistant (Dd2) P. falciparum; assay: SYBR Green I fluorescence-based antiplasmodial assay, Dd2; type: cell-based, Plasmodium falciparum; conditions: for IC50: P. falciparum Dd2, 72 hours; for cross resistance, Dd2 vs D6: ratio of IC50 in Dd2 and D6 strains
Protocol: as §1, §2, §3

[3] = Metabolic stability in pooled murine liver microsomes; type: in vitro ADME; conditions: for half-life: mouse
Protocol: (§4) In vivo efficiency: ADCs antiplasmodial efficiency (ED50, ED90) assessed in murine malaria model against P. yoelii (Py). Metabolic stability: ADCs were assessed for metabolic stability (t1/2, Clint) in pooled murine liver microsomes. Referring to Table 1, ND=not detected.

[4] = HepG2 cytotoxicity assay (resazurin); type: cell-based; conditions: human, HepG2 cells; HepG2, 24 h drug then 24 h drug-free; read-out: CC50 v HepG2
Protocol: Final compounds were assessed for mammalian cytotoxicity using an immortalized human liver carcinoma cell line (HepG2) using previously described methods.^1 In short, final compounds were prepared in DMSO as 10 mM stock solutions. […] To 96-well flat-bottomed tissue culture plates, HepG2 cells were added at 2×10 4 density with an additional 160 μL of complete culture media per well and were incubated overnight at 37° C. to allow for adherence. Compound stocks aliquots were applied as 40 μL solutions in complete media to each well in a serial dilution series that ranged from […] as duplicates. A 10 mM DMSO stock of mefloquine was used as a positive control. […] 20 μL of resazurin (Alamar Blue) in PBS buffer was added to each well to a final concentration of 10 μM, and the plates were incubated for 3 h. Fluorescence was measured at 560 nm excitation and 590 nm emission bands using a Spectramax iD3 plate reader. Fluorescence output values were normalized to the untreated control wells and plotted against the logarithm of drug concentration.

[5] = system: Plasmodium yoelii; assay: In vivo efficacy against murine malaria, modified 4-day test; conditions: for ED50 (mg/kg/d) vs Py / ED90 (mg/kg/d) vs Py: P. yoelii in mice, oral once daily for 4 days, PEG-400
Protocol: as §4
Selected ADC derivatives were also tested in vivo in mice using the standard 4-day test protocol as described previously. For this work the rodent malaria parasite Plasmodium yoelii was used and the mice were CF1 female. Briefly, animals were inoculated with 35,000 parasitized red blood cells (obtained from a donor animal) on Day 0 of the experiment. Beginning on the next day (Day 1) and again on the 3 succeeding days (Days 2, 3, and 4) the animals received oral doses of the test agent dissolved in the dosing vehicle PEG-400. On Day 5 a blood sample was taken from the tail vein and examined microscopically for the presence of parasites using Giemsa stained and methanol fixed blood smears.
The in vivo efficacy of selected ADC derivatives was determined against blood-stage Plasmodium yoelii using a modified 4-day test. Female mice (Charles River Laboratories) were infected intravenously with 35,000 P. yoelii parasitized erythrocytes from a donor animal (Kenya MR4 MRA-428). […] Five days after inoculation, percent parasitemia was calculated by examination of Giemsa-stained blood smears.

[6] = Plasmodium falciparum, D6, 72 h
[7] = Plasmodium falciparum, DD2, 72 h

| SMILES | IC50 [1, 6] | IC50 [2, 7] | CIint [3] | half-life [3] | IC50 [1] | IC50 [2] | T1/2 (min) [3] | cross resistance, Dd2 vs D6 [2] | CC50 at 24 h [4] | ED50 (mg/kg/d) vs Py [5] | ED90 (mg/kg/d) vs Py [5] | ED50 ([5]; P. yoelii, CF1 female mice, 4-day test, oral in PEG-400) |
| --- | --- | --- | --- | --- | --- | --- | --- | --- | --- | --- | --- | --- |
| Clc1ccc2c(Nc3ccc(N4CCN(Cc5ccccc5)CC4)cc3)ccnc2c1 [ADC-008, N-(4-(4-benzylpiperazin-1-yl)phenyl)-7-chloroquinolin-4-amine] | 16.1 nM | 15.9 nM | 391.9 mL/min/kg | 13.9 min | – | – | – | Equipotency | > 200000 nM | – | – | – |
| CCN1CCN(c2ccc(Nc3ccnc4cc(Cl)ccc34)cc2)CC1 [ADC-009, 7-chloro-N-(4-(4-ethylpiperazin-1-yl)phenyl)quinolin-4-amine] | ~13 nM | ~13 nM | 2936 mL/min/kg | 1.86 min | 13.2 nM | 12.7 nM | – | – | > 200000 nM | 1.5 mg/kg/day | 8.4 mg/kg/day | – |
| CN1CCN(c2ccc(Nc3ccnc4cc(Cl)ccc34)cc2)CC1 [ADC-010, 7-chloro-N-(4-(4-methylpiperazin-1-yl)phenyl)quinolin-4-amine] | 13.3 nM | 14 nM | 3784 mL/min/kg | 1.44 min | – | – | – | Equipotency | 185000 nM | – | – | – |
| Clc1ccc2c(Nc3ccc(N4CCNCC4)cc3)ccnc2c1 [ADC-011, 7-chloro-N-(4-(piperazin-1-yl)phenyl)quinolin-4-amine] | 21.8 nM | 65.8 nM | – | – | – | – | – | – | 54000 nM | – | – | – |
| CC(C)(C)OC(=O)N1CCN(c2ccc(Nc3ccnc4cc(Cl)ccc34)cc2)CC1 [ADC-012, tert-butyl 4-(4-((7-chloroquinolin-4-yl)amino)phenyl)piperazine-1-carboxylate] | – | – | – | – | – | – | – | – | > 200000 nM | – | – | – |
| CCN1CCN(c2ccc(Nc3ccnc4ccc(Cl)cc34)cc2)CC1 [ADC-014, 6-chloro-N-(4-(4-ethylpiperazin-1-yl)phenyl)quinolin-4-amine] | 69.8 nM | 66 nM | – | – | – | – | – | Equipotency | > 200000 nM | – | – | – |
| CCN1CCN(c2ccc(Nc3ccnc4cc(C(F)(F)F)ccc34)cc2)CC1 [ADC-024, N-(4-(4-ethylpiperazin-1-yl)phenyl)-7-(trifluoromethyl)quinolin-4-amine] | – | – | – | – | – | – | – | – | > 200000 nM | – | – | – |

Now from value to compound, other results behind:

| IC50 [1, 6] | IC50 [2, 7] | CIint [3] | half-life [3] | IC50 [1] | IC50 [2] | T1/2 (min) [3] | SMILES | cross resistance, Dd2 vs D6 [2] | CC50 at 24 h [4] | ED50 (mg/kg/d) vs Py [5] | ED90 (mg/kg/d) vs Py [5] | ED50 ([5]; P. yoelii, CF1 female mice, 4-day test, oral in PEG-400) |
| --- | --- | --- | --- | --- | --- | --- | --- | --- | --- | --- | --- | --- |
| 39.2 nM | 84.4 nM | – | – | – | – | – | Clc1ccc2c(Nc3ccc(N4CCN(C5CC5)CC4)cc3)ccnc2c1 [ADC-013, 7-chloro-N-(4-(4-cyclopropylpiperazin-1-yl)phenyl)quinolin-4-amine] | – | > 200000 nM | – | – | – |
| 10.2 nM | 75.2 nM | – | – | – | – | – | Clc1ccc2c(Nc3ccc(C4CCNCC4)cc3)ccnc2c1 [ADC-015, 7-chloro-N-(4-(piperidin-4-yl)phenyl)quinolin-4-amine] | – | 58000 nM | – | – | – |
| 5.18 nM | 9.17 nM | 0.00 mL/min/kg | – | – | – | ∞ | CC(C)(C)N1CCN(c2ccc(Nc3ccnc4cc(Cl)ccc34)cc2)CC1 [ADC-017, N-(4-(4-(tert-butyl)piperazin-1-yl)phenyl)-7-chloroquinolin-4-amine] | – | > 200000 nM | 4.0 mg/kg/day | 7.6 mg/kg/day | – |
| 43.3 nM | 110 nM | – | – | – | – | – | FC(F)(F)c1ccc(N2CCN(c3ccc(Nc4ccnc5cc(Cl)ccc45)cc3)CC2)cc1 [ADC-018, 7-chloro-N-(4-(4-(4-(trifluoromethyl)phenyl)piperazin-1-yl)phenyl)quinolin-4-amine] | – | > 200000 nM | – | – | – |
| 4.56 nM | 13.4 nM | 496.7 mL/min/kg | 11 min | – | – | – | CCN1CCC(c2ccc(Nc3ccnc4cc(Cl)ccc34)cc2)CC1 [ADC-020, 7-chloro-N-(4-(1-ethylpiperidin-4-yl)phenyl)quinolin-4-amine] | – | 111000 nM | 1.8 mg/kg/day | 13.4 mg/kg/day | – |
| 4.94 nM | 11.6 nM | 123.6 mL/min/kg | 44.1 min | – | – | – | CC(C)N1CCC(c2ccc(Nc3ccnc4cc(Cl)ccc34)cc2)CC1 [ADC-021, 7-chloro-N-(4-(1-isopropylpiperidin-4-yl)phenyl)quinolin-4-amine] | – | > 200000 nM | 1.1 mg/kg/day | 4.1 mg/kg/day | 1.1 mg/kg/day |
| 10.3 nM | 19.2 nM | – | – | – | – | – | CCN1CCN(c2ccc(Nc3ccnc4cc(Br)ccc34)cc2)CC1 [ADC-025, 7-bromo-N-(4-(4-ethylpiperazin-1-yl)phenyl)quinolin-4-amine] | – | 48000 nM | – | – | – |
| 9.25 nM | 19.3 nM | 78.0 mL/min/kg | 70 min | – | – | – | CCCN1CCC(c2ccc(Nc3ccnc4cc(Cl)ccc34)cc2)CC1 [ADC-026, 7-chloro-N-(4-(1-propylpiperidin-4-yl)phenyl)quinolin-4-amine] | – | > 200000 nM | – | – | – |
| 9.03 nM | 20.4 nM | 129.7 mL/min/kg | 42.1 min | – | – | – | CCCCN1CCC(c2ccc(Nc3ccnc4cc(Cl)ccc34)cc2)CC1 [ADC-027, N-(4-(1-butylpiperidin-4-yl)phenyl)-7-chloroquinolin-4-amine] | – | > 200000 nM | – | – | – |
| 13.8 nM | 19 nM | 98.3 mL/min/kg | 55.5 min | – | – | – | CCC(C)N1CCC(c2ccc(Nc3ccnc4cc(Cl)ccc34)cc2)CC1 (stereo not drawn) [ADC-029, N-(4-(1-(sec-butyl)piperidin-4-yl)phenyl)-7-chloroquinolin-4-amine] | – | > 200000 nM | – | – | – |
| 9.79 nM | 17.8 nM | 391.9 mL/min/kg | 13.9 min | – | – | – | CC(C)CN1CCN(c2ccc(Nc3ccnc4cc(Cl)ccc34)cc2)CC1 [ADC-030, 7-chloro-N-(4-(4-isobutylpiperazin-1-yl)phenyl)quinolin-4-amine] | – | > 200000 nM | – | – | – |
